Consider six molecules from patent publication US4609645A, “Macrolide antibiotics, pharmaceutical compositions and methods of use” (priority 1983, dated 1986).

Usually MIC stands for the lowest concentration that inhibits growth of the organism.

≈ marks a conversion by molar mass, not a printed value. Where two headings read alike, the source gives them in different places.

For one data set, the system named is B. cereus IFO 3001. Description: Minimum inhibitory concentration (MIC), antimicrobial activity. It is filed as cell-based. Conditions: Bacillus cereus. As for the experimental part: (§1) The antimicrobial activity of the PTL-448 derivatives of the invention is illustrated in Table 3, which is a summary of the results of a number of tests carried out to determine minimum inhibitory concentrations (MIC) of the derivatives against a number of typical bacteria. Comparative results for Spiramycin I (SPM I) and III (SPM III) are also given. Tests were carried out using heart infusion agar media (pH 7 at 37° C., after about 20 hours).

The test system of data set [1] is Bacillus subtilis PCI 219. The data set is described as above. The format is cell-based. How it is done: as §1
The test system of a further data set is E. coli N-33. The data set is described as above. The format is cell-based. Particulars: Escherichia coli. How it is done: as §1
Data set [2] has as its system Klebsiella pneumoniae ATCC 10031. The description is as above. It is filed as cell-based. How it is done:
as §1

Data set [3] relates to Micrococcus luteus ATCC 9341. The data set is described as above. It is filed as cell-based. As for the experimental part:
as §1

Another data set has as its system S. aureus FDA 209P. Described as above. It is filed as cell-based. Particulars: Staphylococcus aureus, FDA209P. As for the experimental part:
as §1

A further data set relates to S. pyogenes KB 166. Described as above. The format is cell-based. Particulars: Streptococcus pyogenes, KB166, heart infusion agar, pH 7, 37° C., about 20 hours. As for the experimental part: as §1
Data set [4] has as its system Salmonella typhimurium KB 20. Described as above. It is filed as cell-based. Conditions: Salmonella enterica. As for the experimental part: as §1
Data set [5] has as its system Staphylococcus aureus ATCC 6538P. The description is as above. It is filed as cell-based. Particulars: ATCC6538P. How it is done:
as §1

For data set [6], the system named is Streptococcus pneumoniae III KB 165. The description is as above. The format is cell-based. As for the experimental part:
as §1

For data set [7], the system named is Acholeplasma laidlawii PG-8. Kind of data set: Activity against Mycoplasma, paper disk inhibition zone. It is filed as cell-based. Particulars: paper disk 8 mm in diameter, 37° C., about 48 hours. How it is done: (§2) In addition, the activity of the PTL-448 derivatives against Mycoplasma was examined by conventional methods (paper disk 8 mm in diameter, 37° C., about 48 hours).

The test system of data set [8] is Mycoplasma gallisepticum KP-13. The description is as above. The format is cell-based. Particulars: paper disk 8 mm in diameter, 37° C., about 48 hours. How it is done: as §2
The next data set in a line: Toxicity tests in mice. It is filed as in vivo. Particulars: 100 mg/kg i.p., after 1 month of treatment.
A further data set in a line: Solubility. It is filed as physicochemical.
[9] abbreviates: IFO3001, B. cereus IFO 3001, heart infusion agar, pH 7, 37° C., about 20 hours, read-out: MIC.
Where [10] appears, read: PCI219, Bacillus subtilis PCI 219, heart infusion agar, pH 7, 37° C., about 20 hours, read-out: MIC.
[11] abbreviates: N33, E. coli N-33, heart infusion agar, pH 7, 37° C., about 20 hours, read-out: MIC.
Where [12] appears, read: ATCC10031, Klebsiella pneumoniae ATCC 10031, heart infusion agar, pH 7, 37° C., about 20 hours, read-out: MIC.
The mark [13] stands for this setting: ATCC9341, Micrococcus luteus ATCC 9341, heart infusion agar, pH 7, 37° C., about 20 hours, read-out: MIC.
The mark [14] stands for this setting: S. aureus FDA 209P, heart infusion agar, pH 7, 37° C., about 20 hours, read-out: MIC.
The mark [15] stands for this setting: Salmonella typhimurium KB 20, heart infusion agar, pH 7, 37° C., about 20 hours, read-out: MIC.
The mark [16] stands for this setting: Staphylococcus aureus ATCC 6538P, heart infusion agar, pH 7, 37° C., about 20 hours, read-out: MIC.
Where [17] appears, read: IIIKB165, Streptococcus pneumoniae III KB 165, heart infusion agar, pH 7, 37° C., about 20 hours, read-out: MIC.
The mark [18] stands for this setting: methanol, ethanol, acetone, ethyl acetate, chloroform, benzene.

Regarding `CCC1OC(=O)CC(O)C(C)C(OC2OC(C)C(OC3CC(C)(O)C(O)C(C)O3)C(N(C)C)C2O)C(CC=O)CC(C)C(OC2CCC(N(C)C)C(C)O2)C=CC(C)=CC1C` (stereo not shown) [PTL-448-B], the MIC was 1.56 µg/mL (≈ 1.79 µM) in the data set with B. cereus IFO 3001 (setting [9]); 0.78 µg/mL (≈ 0.897 µM) in data set [1] (setting [10]); 0.78 µg/mL (≈ 0.897 µM) with E. coli N-33 (setting [11]); greater than 100 µg/mL in data set [2] (setting [12]); 0.4 µg/mL (≈ 0.46 µM) in data set [3] (setting [13]); 3.12 µg/mL (≈ 3.59 µM) in the data set with S. aureus FDA 209P (setting [14]). For the same molecule, the minimum inhibitory concentration (MIC) in the data set with S. pyogenes KB 166 is 0.4 µg/mL (≈ 0.46 µM); in data set [4] (setting [15]), greater than 100 µg/mL; in [5] (setting [16]), 3.12 µg/mL (≈ 3.59 µM); in [6] (setting [17]), 0.4 µg/mL (≈ 0.46 µM). Also, the “Diameter of Inhibition Zone” value came out at 31.4 mm in data set [7] and 30.1 mm in data set [8]. Further, the fatalities result in “Toxicity tests in mice” is “no fatalities occurred”. Further, the Solubility entry in “Solubility” (ether, n-hexane) is listed as “Slightly soluble”; in “Solubility” (setting [18]), “Soluble”; in “Solubility” (water), “Insoluble”.
With `COC1C(O)CC(=O)OC(C)CC=CC=CC(OC2CCC(N(C)C)C(C)O2)C(C)CC(CC=O)C1OC1OC(C)C(OC2CC(C)(O)C(O)C(C)O2)C(N(C)C)C1O` (stereo not shown) [SPM I, Spiramycin I, reference compound], the minimal inhibitory concentration (MIC) with B. cereus IFO 3001 (IFO3001, 20 h, pH 7) is 3.12 µg/mL (≈ 3.7 µM); in data set [1] (Bacillus subtilis, PCI219, 20 h, pH 7) it was 1.56 µg/mL (≈ 1.85 µM); in the data set with E. coli N-33 (N33, 20 h, pH 7), 1.56 µg/mL (≈ 1.85 µM); in data set [2] (Klebsiella pneumoniae, ATCC10031, 20 h, pH 7), greater than 100 µg/mL; in [3] (Micrococcus luteus, ATCC9341, 20 h, pH 7), 0.4 µg/mL (≈ 0.474 µM); against S. aureus FDA 209P (20 h, pH 7), 6.25 µg/mL (≈ 7.41 µM). Further, the minimal inhibitory concentration (MIC) was greater than 100 µg/mL in data set [4] (TYPHIMURIUM, 20 h, pH 7); 6.25 µg/mL (≈ 7.41 µM) in [5] (Staphylococcus aureus, 20 h, pH 7); 0.4 µg/mL (≈ 0.474 µM) in data set [6] (Streptococcus pneumoniae, IIIKB165, 20 h, pH 7).
As to `CCC1OC(=O)CC(OC(C)=O)C(C)C(OC2OC(C)C(OC3CC(C)(O)C(O)C(C)O3)C(N(C)C)C2O)C(CC=O)CC(C)C(OC2CCC(N(C)C)C(C)O2)C=CC(C)=CC1C` (stereo not shown) [PTL-448-A], the minimal inhibitory concentration (MIC) in the data set with B. cereus IFO 3001 (setting [9]) is 3.12 µg/mL (≈ 3.42 µM); in [1] (setting [10]), 1.56 µg/mL (≈ 1.71 µM); with E. coli N-33 (setting [11]), 1.56 µg/mL (≈ 1.71 µM); in [2] (setting [12]), greater than 100 µg/mL; in [3] (setting [13]), 0.4 µg/mL (≈ 0.439 µM); in the data set on S. aureus FDA 209P (setting [14]) it was 6.25 µg/mL (≈ 6.86 µM). In addition, the minimum inhibitory concentration (MIC) in data set [4] (setting [15]) was greater than 100 µg/mL; in [5] (setting [16]) it was 6.25 µg/mL (≈ 6.86 µM); in data set [6] (setting [17]) it was 0.4 µg/mL (≈ 0.439 µM). The “Diameter of Inhibition Zone” value in data set [7] is listed as 32.6 mm; in [8], 29.2 mm. Besides, in “Toxicity tests in mice”, the fatalities entry is on record as “no fatalities occurred”. For the same molecule, the Solubility entry in the data set “Solubility” (ether, n-hexane) is on record as “Slightly soluble”; in the data set “Solubility” (setting [18]), “Soluble”; in “Solubility” (water), “Insoluble”.
Take `CCC1OC(=O)CC(O)C(C)C(OC2OC(C)C(O)C(N(C)C)C2O)C(CC=O)CC(C)C(OC2CCC(N(C)C)C(C)O2)C=CC(C)=CC1C` (stereo not shown) [PTL-448-D]: the MIC in the data set with B. cereus IFO 3001 (setting [9]) was determined as 1.56 µg/mL (≈ 2.15 µM); in [1] (setting [10]), 1.56 µg/mL (≈ 2.15 µM); with E. coli N-33 (setting [11]) it was 0.2 µg/mL (≈ 0.276 µM); in data set [2] (setting [12]), 25 µg/mL (≈ 34.5 µM); in data set [3] (setting [13]), 0.2 µg/mL (≈ 0.276 µM); with S. aureus FDA 209P (setting [14]), 1.56 µg/mL (≈ 2.15 µM). Moreover, the MIC was determined as 0.4 µg/mL (≈ 0.552 µM) in the data set with S. pyogenes KB 166, 25 µg/mL (≈ 34.5 µM) in data set [4] (setting [15]), 1.56 µg/mL (≈ 2.15 µM) in data set [5] (setting [16]) and 0.2 µg/mL (≈ 0.276 µM) in [6] (setting [17]). For the same molecule, the “Diameter of Inhibition Zone” value in data set [7] came out at 32.0 mm. Further, in “Toxicity tests in mice”, the fatalities entry is “no fatalities occurred”. The Solubility result in “Solubility” (ether, n-hexane) is recorded as “Slightly soluble”; in “Solubility” (setting [18]), “Soluble”; in the data set “Solubility” (water) it was “Insoluble”.
As to `CCC1OC(=O)CC(OC(C)=O)C(C)C(OC2OC(C)C(O)C(N(C)C)C2O)C(CC=O)CC(C)C(OC2CCC(N(C)C)C(C)O2)C=CC(C)=CC1C` (stereo not shown) [PTL-448-C], the MIC in the data set on B. cereus IFO 3001 (setting [9]) was 1.56 µg/mL (≈ 2.03 µM); in data set [1] (setting [10]), 1.56 µg/mL (≈ 2.03 µM); in the data set with E. coli N-33 (setting [11]), 0.4 µg/mL (≈ 0.522 µM); in [2] (setting [12]), 50 µg/mL (≈ 65.2 µM); in data set [3] (setting [13]), 0.4 µg/mL (≈ 0.522 µM); in the data set on S. aureus FDA 209P (setting [14]), 1.56 µg/mL (≈ 2.03 µM). In addition, the minimum inhibitory concentration (MIC) was 0.4 µg/mL (≈ 0.522 µM) with S. pyogenes KB 166, 50 µg/mL (≈ 65.2 µM) in data set [4] (setting [15]), 1.56 µg/mL (≈ 2.03 µM) in [5] (setting [16]) and 0.2 µg/mL (≈ 0.261 µM) in data set [6] (setting [17]). The “Diameter of Inhibition Zone” value in data set [7] was determined as 33.1 mm. Also, the fatalities entry in “Toxicity tests in mice” is reported as “no fatalities occurred”. Further, the Solubility result in the data set “Solubility” (ether, n-hexane) is “Slightly soluble”; in the data set “Solubility” (setting [18]), “Soluble”; in the data set “Solubility” (water) it was “Insoluble”.
In the case of `CCC(=O)OC1CC(=O)OC(C)CC=CC=CC(OC2CCC(N(C)C)C(C)O2)C(C)CC(CC=O)C(OC2OC(C)C(OC3CC(C)(O)C(O)C(C)O3)C(N(C)C)C2O)C1OC` (stereo not shown) [SPM III, Spiramycin III, reference compound], the MIC with B. cereus IFO 3001 (setting [9]) is 3.12 µg/mL (≈ 3.47 µM); in [1] (setting [10]), 1.56 µg/mL (≈ 1.74 µM); in the data set on E. coli N-33 (setting [11]), 1.56 µg/mL (≈ 1.74 µM); in [2] (setting [12]) it was greater than 100 µg/mL; in data set [3] (setting [13]), 0.4 µg/mL (≈ 0.445 µM); with S. aureus FDA 209P (setting [14]) it was 12.5 µg/mL (≈ 13.9 µM). Besides, the values for the MIC in [4] (setting [15]), in data set [5] (setting [16]) and in data set [6] (setting [17]) were greater than 100 µg/mL, 12.5 µg/mL (≈ 13.9 µM) and 0.4 µg/mL (≈ 0.445 µM), respectively.
